Experimental data reported in PMC9604483, “Crystal Structure of CYP3A4 Complexed with Fluorol Identifies the Substrate Access Channel as a High-Affinity Ligand Binding Site” (International Journal of Molecular Sciences, 2022).
Like-named read-outs stand apart in the source and are kept apart here.

Columns and labels:
CYP3A4 = CYP3A4 (Homo sapiens, UniProt P08684); experiment: Progesterone binding to CYP3A4 (authors' estimate of Kd)
Method: Equal amounts of DMSO were added to the protein solutions to avoid buffer-related changes in fluorol emission. Fluorescence changes were monitored with λex of 455 nm and a 495 nm cutoff emission filter. […] Kinetics were analyzed using the Igor Pro software (WaveMetrics, Oswego, OR, USA).

T224A CYP3A4 = molecular target: T1, T224A CYP3A4 (Homo sapiens, UniProt P08684, T224A); experiment: Equilibrium absorbance titrations of CYP3A4 with progesterone; format: binding
T1 construct: made in house

WT CYP3A4 = molecular target: T2, WT CYP3A4 (Homo sapiens, UniProt P08684); experiment: as above; format: binding
T2 construct: made in house
T2 sequence (P08684 with tags, fused parts or gaps): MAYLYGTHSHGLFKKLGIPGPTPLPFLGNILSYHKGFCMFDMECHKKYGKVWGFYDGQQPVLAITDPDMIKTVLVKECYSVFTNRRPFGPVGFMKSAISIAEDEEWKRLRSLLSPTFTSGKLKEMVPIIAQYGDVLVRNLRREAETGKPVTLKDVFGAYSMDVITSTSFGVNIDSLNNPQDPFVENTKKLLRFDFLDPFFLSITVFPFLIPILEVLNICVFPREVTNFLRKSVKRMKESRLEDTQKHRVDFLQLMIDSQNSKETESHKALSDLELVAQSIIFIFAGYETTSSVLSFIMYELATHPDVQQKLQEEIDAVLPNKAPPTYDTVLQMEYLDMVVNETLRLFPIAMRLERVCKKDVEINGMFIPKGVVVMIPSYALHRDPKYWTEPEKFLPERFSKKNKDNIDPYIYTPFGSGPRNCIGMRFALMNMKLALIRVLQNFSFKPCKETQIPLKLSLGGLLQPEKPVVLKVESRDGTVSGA

T1 sequence (P08684 with tags, fused parts or gaps T224A): as the sequence (P08684 with tags, fused parts or gaps) above, with T204A counted along it
Chain of CYP3A4 (P08684 whole entry): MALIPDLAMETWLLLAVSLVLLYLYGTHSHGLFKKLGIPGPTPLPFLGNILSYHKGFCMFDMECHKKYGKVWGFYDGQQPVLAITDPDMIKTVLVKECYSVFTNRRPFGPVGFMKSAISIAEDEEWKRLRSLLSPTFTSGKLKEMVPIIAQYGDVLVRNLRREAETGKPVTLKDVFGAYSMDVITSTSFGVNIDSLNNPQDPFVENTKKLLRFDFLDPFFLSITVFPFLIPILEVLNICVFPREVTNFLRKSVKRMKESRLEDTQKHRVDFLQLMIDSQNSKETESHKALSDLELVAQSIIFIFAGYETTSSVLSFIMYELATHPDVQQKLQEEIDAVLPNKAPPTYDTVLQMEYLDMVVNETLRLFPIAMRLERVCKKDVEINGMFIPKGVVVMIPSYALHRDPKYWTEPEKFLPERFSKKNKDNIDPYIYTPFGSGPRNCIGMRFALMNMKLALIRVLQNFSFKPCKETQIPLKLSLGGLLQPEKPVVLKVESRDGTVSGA

CC(=O)[C@H]1CC[C@H]2[C@@H]3CCC4=CC(=O)CC[C@]4(C)[C@H]3CC[C@]12C [progesterone]
Kd (CYP3A4; human): 45 µM
Kd (CYP3A4; our estimate, read-out: Kd, high-affinity site): 5 µM
Hill coefficient (nH) (T224A CYP3A4; 2 μM T224A CYP3A4): 1.37
S50 (concentration at half saturation) (T224A CYP3A4; 2 μM T224A CYP3A4, sigmoidal fitting): 25 ± 4 µM
Decrease in the high-spin content on elimination of Thr224 (T224A CYP3A4; PRG-bound, T224A vs WT): 9%
High-spin content in PRG-bound CYP3A4 (T224A CYP3A4; end of titration, T224A): 62%
S50 (concentration at half saturation) (WT CYP3A4; 2 μM WT CYP3A4, sigmoidal fitting): 32 ± 2 µM
High-spin content in PRG-bound CYP3A4 (WT CYP3A4; end of titration, WT): 71%
